Results on 18 compounds are retold here after patent US20250388589A1, “TRICYCLIC HETEROCYCLIC DERIVATIVES, COMPOSITIONS AND USES THEREOF” (Danatlas Pharmaceuticals Co., Ltd., priority 2022, published 2025).

In experiment [1] the target is hPARG (C-terminal His6-tag) (Homo sapiens (Human), UniProt Q86W56). In words: PARG Enzymatic Activity Assay (HTRF). The format is biochemical. Conditions: hPARG 65 pM final, biotinylated-NAD ribosylated PARP1 8 nM final. As to the method:
PARG Enzymatic Activity Assay HTRF assay was used to measure the ability of compounds to inhibit the activity of PARG in vitro. C-terminal His6-tag PARG expressed in E. coli was purified and stored at −80° C. in aliquots. Assay measurements were performed with 1×buffer comprising 50 mM Tris pH 7.4, 0.1 mg/mL BSA, 3 mM EDTA, 0.4 mM EGTA, 1 mM DTT, 50 mM KCl and 0.01% Tween 20.
Compounds dissolved in DMSO were plated into a 384-well assay plate (PerkinElmer, Catalog #: 6008280) in duplicate using a dispenser (Labcyte, Echo 665), and tested on a 10-point 4-fold serial dilution. Add 5 L Enzyme mix [hPARG (C-terminal His6-tag, 4.2 μM), 65 pM final] to the test wells. The plates were covered and left to incubate for 60 minutes at RT before the addition of 5 L substrate mix [biotinylated-NAD ribosylated PARP1 (6.1 μM), 8 nM final] to initiate reaction. After incubating 10 minutes at RT, add 2.5 L Streptavidin-Eu cryptate (Cisbio, Catalog #: 610SAKLA) and 2.5 L Mab anti 6HIS-XL665 (Cisbio, Catalog #: 61HISXLA) to the plate, and incubate for 60 minutes at RT. Read on a multimode plate reader (PerkinElmer, Envision 2015) in time-resolved fluorescence (TRF) mode, with excitation at 337 nm and emission at both 620 nm and 665 nm. Average HTRF signal of high control (Wells with 1% DMSO) was calculated and as Vehicle Control (VC). Average HTRF signal of low control (no Enzyme) was calculated and as Positive control (PC).
(§1) IC50 values were determined by fitting the data to the standard 4 parameters with Hill Slope using GraphPad Prism software.
For orientation: TR-FRET usually uses a lanthanide donor and a delayed reading to cut background.

A further experiment has as its system Kuramochi cell line. In words: Cell Viability Assay (Cell Titer-Glo, 7 days). The following applies: 168 h, Kuramochi cells, 7 days incubation, read-out: PARG Cell viability (IC50). The experiment is classed as cell-based. The procedure: Cell viability studies were conducted in Kuramochi cell line. Cells were maintained in RPMI (Hyclone, Catalog #: SH3080901B) supplemented with 10% v/v FBS (AusGeneX, Catalog #: FBS500-S), 1% v/v Penicillin Streptomycin (Gibco, Catalog #: 15140122). Cells were seeded in 96-well plates (PerkinElmer, Catalog #: 6005680) at a density of 400 cells/well. Compounds dissolved in DMSO were plated in duplicate using a multichannel pipette, and tested on a 9-point 3-fold serial dilution. Cells were incubated for 7 days in a 37° C. active humidified incubator at 5% CO2. Cell viability was measured using the Cell Titer-Glo reagent (Promega, Catalog #: G7573) as manufacturer's instructions. Luminescence signal was measured with a multimode plate reader (Perkin Elmer, Envision 2105 or BMG, ClarioStar Plus). Average values of DMSO treated wells in a plate was calculated and as high control (HC). Average values of only medium in a plate was calculated and as low control (LC)
as §1
For orientation: Cellular ATP, detected with luciferase, serves as a proxy for viable cell number.

hPARG (C-terminal His6-tag), sequence (Q86W56 whole entry): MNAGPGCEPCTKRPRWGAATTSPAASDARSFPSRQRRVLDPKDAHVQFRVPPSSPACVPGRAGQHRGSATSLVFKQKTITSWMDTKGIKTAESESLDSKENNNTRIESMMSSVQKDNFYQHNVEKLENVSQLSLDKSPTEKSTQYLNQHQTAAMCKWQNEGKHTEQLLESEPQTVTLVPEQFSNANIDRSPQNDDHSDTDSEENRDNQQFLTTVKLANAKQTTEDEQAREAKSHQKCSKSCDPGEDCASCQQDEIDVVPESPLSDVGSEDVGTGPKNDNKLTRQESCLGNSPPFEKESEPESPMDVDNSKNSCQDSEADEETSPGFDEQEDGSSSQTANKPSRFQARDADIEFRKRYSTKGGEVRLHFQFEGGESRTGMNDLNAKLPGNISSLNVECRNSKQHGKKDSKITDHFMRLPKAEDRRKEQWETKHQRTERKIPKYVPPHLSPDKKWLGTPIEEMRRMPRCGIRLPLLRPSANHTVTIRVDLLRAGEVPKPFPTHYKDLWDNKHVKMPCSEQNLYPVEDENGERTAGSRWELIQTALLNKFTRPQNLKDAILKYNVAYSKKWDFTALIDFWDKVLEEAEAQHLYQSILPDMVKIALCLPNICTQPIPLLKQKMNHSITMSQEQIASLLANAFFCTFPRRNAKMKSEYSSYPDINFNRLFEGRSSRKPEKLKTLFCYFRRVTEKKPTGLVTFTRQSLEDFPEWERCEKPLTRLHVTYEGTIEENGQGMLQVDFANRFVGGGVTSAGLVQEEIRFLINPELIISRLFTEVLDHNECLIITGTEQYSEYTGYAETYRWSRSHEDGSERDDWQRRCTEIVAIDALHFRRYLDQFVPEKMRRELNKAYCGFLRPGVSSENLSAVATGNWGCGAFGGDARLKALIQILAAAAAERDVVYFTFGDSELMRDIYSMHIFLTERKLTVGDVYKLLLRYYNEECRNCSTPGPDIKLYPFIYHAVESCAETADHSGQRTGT

As a reminder, the IC50 is the concentration that inhibits the measured activity by half. Take `CC1(NS(=O)(=O)c2ccc3c4c(N5CCN(C(=O)C6CC6)CC5)ncnc4n(-c4nnc(C(F)F)s4)c3c2)CC1` [Example 1, 4-(4-(Cyclopropanecarbonyl)piperazin-1-yl)-9-(5-(difluoromethyl)-1,3,4-thiadiazol-2-yl)-N-(1-methylcyclopropyl)-9H-pyrimido[4,5-b]indole-7-sulfonamide]: the IC50 was less than 100 nM in experiment [1] and 100 to 1000 nM with Kuramochi cell line.
On the same counts, the results for `N#CC1(NS(=O)(=O)c2ccc3c4c(N5CCN(C(=O)C6CC6)CC5)ncnc4n(-c4nnc(C(F)F)s4)c3c2)CC1` [Example 2, N-(1-Cyanocyclopropyl)-4-(4-(cyclopropanecarbonyl)piperazin-1-yl)-9-(5-(difluoromethyl)-1,3,4-thiadiazol-2-yl)-9H-pyrimido[4,5-b]indole-7-sulfonamide] are less than 100 nM and less than 100 nM.
For `CC(C)(C)C(=O)N1CCN(c2ncnc3c2c2ccc(S(=O)(=O)NC4(C#N)CC4)cc2n3-c2nnc(C(F)F)s2)CC1` [Example 3, N-(1-Cyanocyclopropyl)-9-(5-(difluoromethyl)-1,3,4-thiadiazol-2-yl)-4-(4-pivaloylpiperazin-1-yl)-9H-pyrimido[4,5-b]indole-7-sulfonamide] the same measures were less than 100 nM and less than 100 nM.
On the same counts, the results for `CC1(C(=O)N2CCN(c3ncnc4c3c3ccc(S(=O)(=O)NC5(C#N)CC5)cc3n4-c3nnc(C(F)F)s3)CC2)CCC1` [Example 4, N-(1-Cyanocyclopropyl)-9-(5-(difluoromethyl)-1,3,4-thiadiazol-2-yl)-4-(4-(1-methylcyclobutane-1-carbonyl)piperazin-1-yl)-9H-pyrimido[4,5-b]indole-7-sulfonamide] are less than 100 nM and 100 to 1000 nM.
As to `C[C@@H]1CN(c2ncnc3c2c2ccc(S(=O)(=O)NC4(C#N)CC4)cc2n3-c2nnc(C(F)F)s2)CCN1C(=O)C1CCC1` [Example 5, (R)-N-(1-Cyanocyclopropyl)-4-(4-(cyclobutanecarbonyl)-3-methylpiperazin-1-yl)-9-(5-(difluoromethyl)-1,3,4-thiadiazol-2-yl)-9H-pyrimido[4,5-b]indole-7-sulfonamide], the figures for the IC50 (in experiment [1]; in the experiment on Kuramochi cell line) were less than 100 nM and 100 to 1000 nM, respectively.
For `CN(C)C(=O)N1CCN(c2ncnc3c2c2ccc(S(=O)(=O)NC4(C#N)CC4)cc2n3-c2nnc(C(F)F)s2)CC1` [Example 6, 4-(7-(N-(1-Cyanocyclopropyl)sulfamoyl)-9-(5-(difluoromethyl)-1,3,4-thiadiazol-2-yl)-9H-pyrimido[4,5-b]indol-4-yl)-N,N-dimethylpiperazine-1-carboxamide] the same measures were less than 100 nM and less than 100 nM.
For `CCN(C)C(=O)N1CCN(c2ncnc3c2c2ccc(S(=O)(=O)NC4(C#N)CC4)cc2n3-c2nnc(C(F)F)s2)CC1` [Example 7, 4-(7-(N-(1-Cyanocyclopropyl)sulfamoyl)-9-(5-(difluoromethyl)-1,3,4-thiadiazol-2-yl)-9H-pyrimido[4,5-b]indol-4-yl)-N-ethyl-N-methylpiperazine-1-carboxamide] the same measures were less than 100 nM and less than 100 nM.
For `N#CC1(NS(=O)(=O)c2ccc3c4c(N5CCN(C(=O)N6CCOCC6)CC5)ncnc4n(-c4nnc(C(F)F)s4)c3c2)CC1` [Example 8, N-(1-Cyanocyclopropyl)-9-(5-(difluoromethyl)-1,3,4-thiadiazol-2-yl)-4-(4-(morpholine-4-carbonyl)piperazin-1-yl)-9H-pyrimido[4,5-b]indole-7-sulfonamide] the same measures were less than 100 nM and less than 100 nM.
Take `CN1CCN(C(=O)N2CCN(c3ncnc4c3c3ccc(S(=O)(=O)NC5(C#N)CC5)cc3n4-c3nnc(C(F)F)s3)CC2)CC1` [Example 9, N-(1-Cyanocyclopropyl)-9-(5-(difluoromethyl)-1,3,4-thiadiazol-2-yl)-4-(4-(4-methylpiperazine-1-carbonyl)piperazin-1-yl)-9H-pyrimido[4,5-b]indole-7-sulfonamide]: the IC50 in experiment [1] was less than 100 nM; in the experiment with Kuramochi cell line, 100 to 1000 nM.
`CC1(C(=O)N2CCN(c3ncnc4c3c3ccc(S(=O)(=O)NC5(C#N)CC5)cc3n4-c3nnc(C(F)F)s3)CC2)CC1` [Example 10, N-(1-Cyanocyclopropyl)-9-(5-(difluoromethyl)-1,3,4-thiadiazol-2-yl)-4-(4-(1-methylcyclopropane-1-carbonyl)piperazin-1-yl)-9H-pyrimido[4,5-b]indole-7-sulfonamide]: the concentration for half-maximal inhibition (IC50) (in experiment [1]; in the experiment with Kuramochi cell line) was less than 100 nM in each case.
As for `CC(C)C(=O)N1CCN(c2ncnc3c2c2ccc(S(=O)(=O)NC4(C#N)CC4)cc2n3-c2nnc(C(F)F)s2)CC1` [Example 11, N-(1-Cyanocyclopropyl)-9-(5-(difluoromethyl)-1,3,4-thiadiazol-2-yl)-4-(4-isobutyrylpiperazin-1-yl)-9H-pyrimido[4,5-b]indole-7-sulfonamide], the IC50 (in experiment [1]; with Kuramochi cell line) was less than 100 nM throughout.
In the case of `N#CC1(NS(=O)(=O)c2ccc3c4c(N5CCN(C(=O)C6CCOCC6)CC5)ncnc4n(-c4nnc(C(F)F)s4)c3c2)CC1` [Example 12, N-(1-Cyanocyclopropyl)-9-(5-(difluoromethyl)-1,3,4-thiadiazol-2-yl)-4-(4-(tetrahydro-2H-pyran-4-carbonyl)piperazin-1-yl)-9H-pyrimido[4,5-b]indole-7-sulfonamide], the IC50 (in experiment [1]; with Kuramochi cell line) was less than 100 nM in each case.
As for `N#CC1(NS(=O)(=O)c2ccc3c4c(N5CCN(C(=O)c6ccc(F)cc6)CC5)ncnc4n(-c4nnc(C(F)F)s4)c3c2)CC1` [Example 13, N-(1-Cyanocyclopropyl)-9-(5-(difluoromethyl)-1,3,4-thiadiazol-2-yl)-4-(4-(4-fluorobenzoyl)piperazin-1-yl)-9H-pyrimido[4,5-b]indole-7-sulfonamide], the IC50 (in experiment [1]; with Kuramochi cell line) was 100 to 1000 nM throughout.
In the case of `N#CC1(NS(=O)(=O)c2ccc3c4c(N5CCN(C(=O)c6ccccn6)CC5)ncnc4n(-c4nnc(C(F)F)s4)c3c2)CC1` [Example 14, N-(1-Cyanocyclopropyl)-9-(5-(difluoromethyl)-1,3,4-thiadiazol-2-yl)-4-(4-picolinoylpiperazin-1-yl)-9H-pyrimido[4,5-b]indole-7-sulfonamide], the IC50 in the experiment with Kuramochi cell line is less than 100 nM.
`CC(C)OC(=O)N1CCN(c2ncnc3c2c2ccc(S(=O)(=O)NC4(C#N)CC4)cc2n3-c2nnc(C(F)F)s2)CC1` [Example 15, Isopropyl 4-(7-(N-(1-cyanocyclopropyl)sulfamoyl)-9-(5-(difluoromethyl)-1,3,4-thiadiazol-2-yl)-9H-pyrimido[4,5-b]indol-4-yl)piperazine-1-carboxylate]: the IC50 (in experiment [1]; with Kuramochi cell line) was 100 to 1000 nM throughout.
For `N#CC1(NS(=O)(=O)c2ccc3c4c(N5CCN(c6nccs6)CC5)ncnc4n(-c4nnc(C(F)F)s4)c3c2)CC1` [Example 16, N-(1-Cyanocyclopropyl)-9-(5-(difluoromethyl)-1,3,4-thiadiazol-2-yl)-4-(4-(thiazol-2-yl)piperazin-1-yl)-9H-pyrimido[4,5-b]indole-7-sulfonamide], the IC50 (in experiment [1]; in the experiment on Kuramochi cell line) was 100 to 1000 nM in each case.
As to `N#CC1(NS(=O)(=O)c2ccc3c4c(N5CCN(c6ccccn6)CC5)ncnc4n(-c4nnc(C(F)F)s4)c3c2)CC1` [Example 17, N-(1-Cyanocyclopropyl)-9-(5-(difluoromethyl)-1,3,4-thiadiazol-2-yl)-4-(4-(pyridin-2-yl)piperazin-1-yl)-9H-pyrimido[4,5-b]indole-7-sulfonamide], the IC50 (in experiment [1]; in the experiment on Kuramochi cell line) was 100 to 1000 nM in each case.
`CC(C)C(=O)N1C[C@H]2CC[C@@H]1CN2c1ncnc2c1c1ccc(S(=O)(=O)NC3(C#N)CC3)cc1n2-c1nnc(C(F)F)s1` [Example 32, N-(1-Cyanocyclopropyl)-9-(5-(difluoromethyl)-1,3,4-thiadiazol-2-yl)-4-((1R,4R)-5-isobutyryl-2,5-diazabicyclo[2.2.2]octan-2-yl)-9H-pyrimido[4,5-b]indole-7-sulfonamide]: in the experiment with Kuramochi cell line, the IC50 lay within 100 to 1000 nM.
